Patent publication US11040028B2, “Penicinotam derivative, preparation method and use thereof” (OCEAN UNIVERSITY OF CHINA, priority 2017, dated 2021)

Experiments:
Format in all cases: cell-based
BHK-21 cells = assay: Anti-fibrosis activity test: inhibition of BHK-21 cell proliferation (CCK-8); conditions: Mesocricetus auratus, BHK-21, 48 h
In short: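 Read-out: CCK-8 absorbance at 450 nm after 2 h, giving proliferation inhibition (1−Ai/Ao)×100% versus blank control, from which IC50 was derived. Cells had been treated with compounds for 48 h after 24 h adherence at 37° C. Pirfenidone served as positive control.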

[1] = tested on: human lung fibroblasts HFL1; assay: Anti-fibrosis activity test: inhibition of proliferation of human lung fibroblasts HFL1 (CCK-8); conditions: Homo sapiens, HFL1, 48 h
In short: (§1)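 Exponentially growing cells, 2×10^4 cells/mL, attached 24 h. Dosed 48 h across concentrations (n=3). CCK-8 2 h → A450; IR vs blank; IC50.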

[2] = tested on: human hepatic stellate cells LX-2; assay: Anti-fibrosis activity test: inhibition of proliferation of human hepatic stellate cells LX-2 (CCK-8); conditions: Homo sapiens, 48 h
In short: as §1

[3] = tested on: human fibrosarcoma cells HT-1080; assay: Anti-fibrosis activity test: inhibition of proliferation of human fibrosarcoma cells HT-1080 (CCK-8); conditions: Homo sapiens, HT-1080, 48 h
In short: as §1

[4] = tested on: human dermal fibroblasts CCC-ESF-1; assay: Anti-fibrosis activity test: inhibition of proliferation of human dermal fibroblasts CCC-ESF-1 (CCK-8); conditions: Fibroblast
In short: as §1

[5] = tested on: human embryonic lung fibroblast IMR-90; assay: Anti-fibrosis activity test: inhibition of proliferation of human embryonic lung fibroblast IMR-90 (CCK-8)
In short: as §1

[6] = tested on: cardiac fibroblast RAT-iCell-C002; assay: Anti-fibrosis activity test: inhibition of proliferation of cardiac fibroblast RAT-iCell-C002 (CCK-8); conditions: Cardiac fibroblast, 48 h
In short: as §1

NF-κB = assay: Immunological activity test: inhibition of NF-κB activity; conditions: initial concentration of 30 μM; a/b isomers given as first/second symbol; read-out: IC50 (μM), inhibitory activity against NF-κB
In short: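 IC50 values come from further analysis of the data after an initial test at a single 30 μM concentration. Parthenolide served as the reference inhibitor.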

[7] = tested on: mouse macrophages (RAW264.7); assay: Lipopolysaccharide-induced NO secretion in macrophages (Griess); conditions: Mus musculus, RAW264.7, 24 h, RAW264.7, LPS 1 μg/ml, a/b isomers given as first/second symbol, read-out: IC50 (μM), inhibition of lipopolysaccharide-induced NO secretion in macrophages
In short: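 RAW264.7 cells in DMEM with 10% FBS were treated with test compounds at several concentrations, then stimulated with LPS (1 μg/ml) for 24 hours. Nitrite in the supernatant was measured by Griess reaction at 548 nm, and percent inhibition was calculated against blank-medium controls.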

[8] = Homo sapiens, CCC-ESF-1 cells, 48 h, CCK-8
[9] = Homo sapiens, IMR-90 cells, 48 h, CCK-8
[10] = CCK-8, 48 hours after administration
[11] = human lung fibroblasts HFL1, CCK-8, 48 hours
[12] = human hepatic stellate cells LX-2, CCK-8, 48 hours
[13] = human fibrosarcoma cells HT-1080, CCK-8, 48 hours
[14] = human dermal fibroblasts CCC-ESF-1, CCK-8, 48 hours
[15] = human embryonic lung fibroblast IMR-90, CCK-8, 48 hours
[16] = cardiac fibroblast RAT-iCell-C002, CCK-8, 48 hours

| Structure (SMILES) | IC50 (BHK-21 cells; 48 h, CCK-8) [mM] | IC50 ([1]; HFL1 cells, 48 h, CCK-8) [mM] | IC50 ([2]; LX-2, 48 h, LX-2 cells, CCK-8) [mM] | IC50 ([3]; HT-1080 cells, 48 h, CCK-8) [mM] | IC50 [4, 8] [mM] | IC50 [5, 9] [mM] | IC50 ([6]; RAT-iCell-C002 cells, CCK-8) [mM] | IC50 (NF-κB) [µM] | IC50 [7] [µM] | IC50 (BHK-21 cells; [10]) [mM] | IC50 [1, 11] [mM] | IC50 [2, 12] [mM] | IC50 [3, 13] [mM] | IC50 [4, 14] [mM] | IC50 [5, 15] [mM] | IC50 [6, 16] [mM] |
| --- | --- | --- | --- | --- | --- | --- | --- | --- | --- | --- | --- | --- | --- | --- | --- | --- |
| O=C1c2c(nc3ccccc3c2OCCCN2CCNCC2)-c2cccn21 [Compound 669b, 9-(3-(piperazin-1-yl)propoxy)-10H-pyrrolizino[1,2-b]quinolin-10-one] | 0.05 to 5 | 0.05 to 5 | 0.05 to 5 | 0.05 to 5 | 0.05 to 5 | 0.05 to 5 | 0.05 to 5 | 1 to 10 | 1 to 10 |  |  |  |  |  |  |  |
| O=C1c2c(n(Cc3cc(F)ccc3F)c3ccccc3c2=O)-c2cccn21 [Compound 573a, 4-(2,5-Difluorobenzyl)-9H-pyrrolizino[1,2-b]quinoline-9,10(4H)-dione] |  |  |  |  |  |  |  | 1 to 10 | 1 to 10 | 0.05 to 5 | 0.05 to 5 | 0.05 to 5 | 0.05 to 5 | 0.05 to 5 | < 0.05 | 0.05 to 5 |
| O=C1c2c(n(Cc3cccc(F)c3)c3ccccc3c2=O)-c2cccn21 [Compound 595a, 4-(3-Fluorobenzyl)-9H-pyrrolizino[1,2-b]quinoline-9,10(4H)-dione] |  |  |  |  |  |  |  | 1 to 10 | 0.1 to 1 | 0.05 to 5 | 0.05 to 5 | 0.05 to 5 | 0.05 to 5 | < 0.05 | 0.05 to 5 | 0.05 to 5 |
| Cc1cc2nc3c(c(O)c2cc1C)C(=O)n1cccc1-3 [Compound 756b, 9-hydroxy-6,7-dimethyl-10H-pyrrolizino[1,2-b]quinolin-10-one] | 0.05 to 5 | 0.05 to 5 | 0.05 to 5 | 0.05 to 5 | 0.05 to 5 | 0.05 to 5 | 0.05 to 5 | 1 to 10 | 10 to 50 |  |  |  |  |  |  |  |
| O=C1c2c(nc3ccccc3c2OCC(F)(F)F)-c2cccn21 [Compound 657b, 9-(2,2,2-trifluoroethoxy)-10H-pyrrolizino[1,2-b]quinolin-10-one] |  |  |  |  |  |  |  | 10 to 50 | 1 to 10 | 0.05 to 5 | 0.05 to 5 | 0.05 to 5 | 0.05 to 5 | 0.05 to 5 | 0.05 to 5 | 0.05 to 5 |
| O=C1c2c(nc3cc(OC(F)(F)F)ccc3c2O)-c2cccn21 [Compound 548b, 9-hydroxy-6-trifluoromethoxy-10H-pyrrolizino[1,2-b]quinolin-10-one] |  |  |  |  |  |  |  | 1 to 10 | 1 to 10 | 0.05 to 5 | 0.05 to 5 | 0.05 to 5 | 0.05 to 5 | 0.05 to 5 | 0.05 to 5 | 0.05 to 5 |
| CN(C)CCCOc1c2c(nc3ccccc13)-c1cccn1C2=O [Compound 658b, 9-(3-(dimethylamino)propoxy)-10H-pyrrolizino[1,2-b]quinolin-10-one] |  |  |  |  |  |  |  | 1 to 10 | 1 to 10 | 0.05 to 5 | 0.05 to 5 | 0.05 to 5 | 0.05 to 5 | 0.05 to 5 | 0.05 to 5 | 0.05 to 5 |
| O=C1c2c([nH]c3cccc(C(F)(F)F)c3c2=O)-c2cccn21 [Compound 479a, 8-(Trifluoromethyl)-9H-pyrrolizino[1,2-b]quinoline-9,10(4H)-dione] |  |  |  |  |  |  |  | 10 to 50 | 10 to 50 | < 0.05 | 0.05 to 5 | 0.05 to 5 | 0.05 to 5 | 0.05 to 5 | 0.05 to 5 | 0.05 to 5 |
| CCOC(=O)/C=C/Cn1c2c(c(=O)c3ccccc31)C(=O)n1cccc1-2 [Compound 661a, Ethyl (E)-4-(9,10-dioxo-9H-pyrrolizino[1,2-b]quinolin-4(10H)-yl)but-2-enoate] |  |  |  |  |  |  |  | 0.1 to 1 | 1 to 10 | < 0.05 | 0.05 to 5 | 0.05 to 5 | 0.05 to 5 | 0.05 to 5 | 0.05 to 5 | 0.05 to 5 |
